The test system of one series is sodium channel. In words: Guanidine influx assay (14C-guanidine radiotracer flux, in vitro). The series is classed as cell-based, human or rat. The following applies: guanidine influx assay using a known cell line that expresses a sodium channel. Put shortly:
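Test agents at half-step dilutions around 1 μM are added to plated cells in low-sodium HEPES buffer, then an aconitine/14C-guanidine mixture; after ambient-temperature incubation, cells are washed and counted. IC50 comes from a sigmoidal fit.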

For another series, the target named is CYP3A4 (Homo sapiens, UniProt P08684). As to the kind of experiment: Cytochrome P450 (CYP450) Inhibition Assay, CYP3A4 (Vivid fluorescence, BOMCC substrate). The conditions noted are these: human, P450 Baculosomes (recombinant CYP3A4), probe BOMCC (Vivid substrate).
Sequence of CYP3A4 (P08684 whole entry): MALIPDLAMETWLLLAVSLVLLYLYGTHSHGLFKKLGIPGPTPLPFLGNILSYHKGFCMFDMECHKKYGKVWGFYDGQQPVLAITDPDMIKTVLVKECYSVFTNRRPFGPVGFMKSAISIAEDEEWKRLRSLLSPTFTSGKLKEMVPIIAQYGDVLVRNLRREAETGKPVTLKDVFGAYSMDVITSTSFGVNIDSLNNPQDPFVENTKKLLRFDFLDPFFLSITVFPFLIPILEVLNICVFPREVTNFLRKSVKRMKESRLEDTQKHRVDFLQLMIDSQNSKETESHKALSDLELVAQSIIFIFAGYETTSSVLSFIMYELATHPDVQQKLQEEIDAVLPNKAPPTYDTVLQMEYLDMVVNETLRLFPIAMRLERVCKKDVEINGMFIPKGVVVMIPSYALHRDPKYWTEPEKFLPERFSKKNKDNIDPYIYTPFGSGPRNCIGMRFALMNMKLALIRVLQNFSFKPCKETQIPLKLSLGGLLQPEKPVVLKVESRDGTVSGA

Each structure is given as a SMILES string.

The IC50 is the point on the concentration scale where inhibition reaches its midpoint. As a reminder, the inhibition is how much of the control response was suppressed. Consider `Cc1nonc1CN1C(=O)C2(COc3cc4c(cc32)OCCO4)c2ccccc21` (centres unmarked) [Example 7.18, 1′-[(4-methyl-1,2,5-oxadiazol-3-yl)methyl]-2,3-dihydrospiro[furo[2,3-g][1,4]benzodioxine-8,3′-indol]-2′(1′H)-one], for which the IC50 in the series on sodium channel (activity level class) lay within 1 to 100 nM. In addition, on CYP3A4, the inhibition at 10 µM was less than 50%.

For the compound `O=C1N(Cc2cccc(F)c2F)c2ccccc2C12COc1cc3c(cc12)OCCO3` (centres unmarked) [Example 7.19, 1-(2,3-difluorobenzyl)-2,3-dihydrospiro[furo[2,3-g][1,4]benzodioxine-8,3′-indol]-2′(1′H)-one], the IC50 in the series with sodium channel (activity level class) was in the range of 1 to 100 nM. Besides, the inhibition at 10 µM at CYP3A4 was greater than 50%.

As to `O=C1N(Cc2cc(F)cc(F)c2)c2ccccc2C12COc1cc3c(cc12)OCCO3` (centres unmarked) [Example 7.20, 1′-(3,5-difluorobenzyl)-2,3-dihydrospiro[furo[2,3-g][1,4]benzodioxine-8,3′-indol]-2′(1′H)-one], the IC50 with sodium channel (activity level class) was in the range of 1 to 100 nM. Further, on CYP3A4, the inhibition at 10 µM was greater than 50%.

Turning to `O=C1N(Cc2ccc(F)cc2)c2ccccc2C12COc1cc3c(cc12)OCCO3` (centres unmarked) [Example 7.21, 1′-(4-fluorobenzyl)-2,3-dihydrospiro[furo[2,3-g][1,4]benzodioxine-8,3′-indol]-2′(1′H)-one], the IC50 in the series on sodium channel (activity level class) was in the range of 1 to 100 nM. Further, on CYP3A4, the inhibition at 10 µM was greater than 50%.

Consider `O=C1N(Cc2ccc(F)cc2Cl)c2ccccc2C12COc1cc3c(cc12)OCCO3` (centres unmarked) [Example 7.22, 1′-(2-chloro-4-fluorobenzyl)-2,3-dihydrospiro[furo[2,3-g][1,4]benzodioxine-8,3′-indol]-2′(1′H)-one], for which the IC50 with sodium channel (activity level class) lay in the range of 1 to 100 nM. The inhibition at 10 µM at CYP3A4 was less than 50%.

As for `Cn1nnc2cc(CN3C(=O)C4(COc5cc6c(cc54)OCCO6)c4ccccc43)ccc21` (centres unmarked) [Example 7.23, 1′-[(1-methyl-1H-benzotriazol-5-yl)methyl]-2,3-dihydrospiro[furo[2,3-g][1,4]-benzodioxine-8,3′-indol]-2′(1′H)-one], the IC50 in the series on sodium channel (activity level class) is 1 to 100 nM. For the same compound, on CYP3A4, the inhibition at 10 µM was less than 50%.

`O=C1N(Cc2cccc(OC(F)(F)F)c2)c2ccccc2C12COc1cc3c(cc12)OCCO3` (centres unmarked) [Example 7.24, 1′-[(3-trifluoromethoxy)benzyl]-2,3-dihydrospiro[furo[2,3-g][1,4]benzodioxine-8,3′-indol]-2′(1′H)-one]: the IC50 with sodium channel (activity level class) is 1 to 100 nM. Moreover, the inhibition at 10 µM on CYP3A4 is greater than 50%.

For the compound `O=C1N(Cc2c(F)cccc2C(F)(F)F)c2ccccc2C12COc1cc3c(cc12)OCCO3` (centres unmarked) [Example 7.25, 1′-[(2-fluoro-6-trifluoromethyl)benzyl]-2,3-dihydrospiro[furo[2,3-g][1,4]benzodioxine-8,3′-indol]-2′(1′H)-one], the IC50 in the series with sodium channel (activity level class) lay in the range of 1 to 100 nM. Besides, the inhibition at 10 µM at CYP3A4 was less than 50%.

For `O=C1N(Cc2cc(C(F)(F)F)ccc2F)c2ccccc2C12COc1cc3c(cc12)OCCO3` (centres unmarked) [Example 7.26, 1′-[(2-fluoro-5-trifluoromethyl)benzyl]-2,3-dihydrospiro[furo[2,3-g][1,4]benzodioxine-8,3′-indol]-2′(1′H)-one], the IC50 with sodium channel (activity level class) is 1 to 100 nM. Moreover, the inhibition at 10 µM on CYP3A4 was less than 50%.

For `O=C1N(Cc2ccccc2OC(F)(F)F)c2ccccc2C12COc1cc3c(cc12)OCCO3` (centres unmarked) [Example 7.27, 1′-[(2-trifluoromethoxy)benzyl]-2,3-dihydrospiro[furo[2,3-g][1,4]benzodioxine-8,3′-indol]-2′(1′H)-one], in the series with sodium channel (activity level class), the IC50 lay in the range of 1 to 100 nM. For the same compound, at CYP3A4, the inhibition at 10 µM is less than 50%.

Regarding `CC1(C)COC(C)(CCN2C(=O)C3(COc4cc5c(cc43)OCCO5)c3ccccc32)OC1` (centres unmarked) [Example 7.28], the IC50 in the series on sodium channel (activity level class) lay within 1 to 100 nM. At CYP3A4, the inhibition at 10 µM was greater than 50%.

Consider `O=C1N(C[C@H]2CCCO2)c2c(F)cccc2C12COc1cc3c(cc12)CCO3` (stereo partly drawn) [Example 8.2, 7′-fluoro-1′-[(2R)-tetrahydrofuran-2-ylmethyl]-5,6-dihydrospiro[benzo[1,2-b:5,4-b′]difuran-3,3′-indol]-2′(1′H)-one], for which the IC50 in the series on sodium channel (activity level class) is 1 to 100 nM. Further, the inhibition at 10 µM on CYP3A4 is less than 50%.

On to `O=C1N(Cc2cncc(F)c2)c2ccccc2C12COc1cc3c(cc12)OCCO3` (centres unmarked) [Example 8.18, 1′-[(5-fluoropyridin-3-yl)methyl]-2,3-dihydrospiro[furo[2,3-g][1,4]benzodioxine-8,3′-indol]-2′(1′H)-one], for which, in the series with sodium channel (activity level class), the IC50 was 1 to 100 nM. On CYP3A4, the inhibition at 10 µM was greater than 50%.

Take `COC(=O)c1ccccc1CN1C(=O)C2(COc3cc4c(cc32)CCO4)c2ccccc21` (centres unmarked) [Example 9.14, methyl 2-[(2′-oxo-5,6-dihydrospiro[benzo[1,2-b:5,4-b′]difuran-3,3′-indol]-1′(2′H)-yl)methyl]benzoate]: the IC50 with sodium channel (activity level class) was in the range of 1 to 100 nM. Further, the inhibition at 10 µM on CYP3A4 is less than 50%.

With `COc1cc2c(cc1F)C1(CO2)C(=O)N(CC2CCOCC2)c2ccccc21` (centres unmarked) [Example 9.29, 5-fluoro-6-methoxy-1-(tetrahydro-2H-pyran-4-ylmethyl)spiro[1-benzofuran-3,3′-indol]-2′(1′H)-one], in the series with sodium channel (activity level class), the IC50 was in the range of 1000 to 10000 nM. For the same compound, the inhibition at 10 µM at CYP3A4 is less than 50%.

On to `O=C1N(Cc2ccc(C(F)(F)F)o2)c2ccccc2C12COc1cc(F)c(F)cc12` (centres unmarked) [Example 9.32, 5,6-difluoro-1′-{[5-(trifluoromethyl)furan-2-yl]methyl}spiro[1-benzofuran-3,3′-indol]-2′(1′H)-one], for which the IC50 in the series with sodium channel (activity level class) fell in the range of 1000 to 10000 nM. The inhibition at 10 µM at CYP3A4 was greater than 50%.

With `COc1ccc2c(c1)OCC21C(=O)N(CC2CCOCC2)c2ccccc21` (centres unmarked) [Example 9.35, 6-methoxy-1′-(tetrahydro-2H-pyran-4-ylmethyl)spiro[1-benzofuran-3,3′-indol]-2′(1′H)-one], the 50% inhibitory concentration (IC50) with sodium channel (activity level class) lay in the range of 100 to 1000 nM. On CYP3A4, the inhibition at 10 µM is greater than 50%.

As for `COc1ccc2c(c1)OCC21C(=O)N(CC2CCCCO2)c2ccccc21` (centres unmarked) [Example 9.36, 6-methoxy-1′-(tetrahydro-2H-pyran-2-ylmethyl)spiro[1-benzofuran-3,3′-indol]-2′(1′H)-one], the IC50 in the series with sodium channel (activity level class) is 1 to 100 nM. On CYP3A4, the inhibition at 10 µM is less than 50%.

Take `N#Cc1cc2c(cc1F)OCC21C(=O)N(Cc2ccccc2C(F)(F)F)c2ccccc21` (centres unmarked) [Example 9.50, 6-fluoro-2′-oxo-1′-[2-(trifluoromethyl)benzyl]-1′,2′-dihydrospiro[1-benzofuran-3,3′-indole]-5-carbonitrile]: the IC50 with sodium channel (activity level class) lay in the range of 1000 to 10000 nM. In addition, the inhibition at 10 µM on CYP3A4 is greater than 50%.

Take `COCCOCCN1C(=O)C2(COc3cc4onc(C)c4cc32)c2ccccc21` (centres unmarked) [Example 9.54, 1′-[2-(2-methoxyethoxy)ethyl]-3-methylspiro[furo[3,2-f][1,2]benzisoxazole-5,3′-indol]-2′(1′H)-one]: in the series with sodium channel, the IC50 was in the range of 100 to 1000 nM. For the same compound, the inhibition at 10 µM at CYP3A4 is less than 50%.

Regarding `O=C1N(Cc2ccccn2)c2ccccc2C12COc1cc(F)c(F)cc12` (centres unmarked) [Example 9.64, 5,6-difluoro-1′-(pyridin-2-ylmethyl)spiro[1-benzofuran-3,3′-indol]-2′(1′H)-one], the IC50 in the series on sodium channel is 100 to 1000 nM. The inhibition at 10 µM on CYP3A4 is less than 50%.

Turning to `O=C1N(CC2CCOCC2)c2ccccc2C12COc1cc(F)c(F)cc12` (centres unmarked) [Example 9.65, 5,6-difluoro-1′-(tetrahydro-2H-pyran-4-ylmethyl)spiro[1-benzofuran-3,3′-indol]-2′(1′H)-one], in the series with sodium channel, the half-inhibitory concentration (IC50) was 1000 to 10000 nM. In addition, the inhibition at 10 µM on CYP3A4 is less than 50%.

(Values after patent publication US8263606B2 (Xenon Pharmaceuticals Inc., priority 2008, dated 2012).)
